This is an account of results in patent US20220220128A1, “HETEROCYCLIC COMPOUNDS AS KINASE INHIBITORS, COMPOSITIONS COMPRISING THE HETEROCYCLIC COMPOUND, AND METHODS OF USE THEREOF” (JS Innopharm (Shanghai) Ltd, priority 2019, published 2022).

For assay [1], the system named is TT cells. Kind of assay: TT Cell Proliferation Assay (WST-8, 8 days). Format: cell-based. The conditions noted are these: Homo sapiens, TT, 192 h, growth inhibition in TT cells, read-out: TT Cellular Activity. Put shortly: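 IC50 was derived from absorbance at 450 nm after 5 h with WST-8, following 8 days' incubation at 37 °C. Final compound levels spanned 0.0005–5 μM in 0.5% DMSO. TT cells were seeded at 6,000 per well in 10% FBS RPMI-1640 and left to attach for 24 h beforehand.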
On the technique in general: Tetrazolium dyes change colour on reduction, which living cells bring about.

Assay [2] has as its target T1, BAF3-KIF5B-RET cells (Homo sapiens, UniProt P07949).
T1 construct: fused on or other part: P33176 (Kinesin-1 heavy chain)
Kind of assay: BAF3-KIF5B-RET Cell proliferation assay (CellTiter-Glo, 72 hours). The class given is cell-based. The conditions noted are these: growth inhibition, read-out: BA/F3-KIF5B-RET Cellular activity. Put shortly:
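Cells seeded at 2,000/well in RPMI-1640 with 10% FBS and left 24 h at 37 °C, then exposed 72 h to nine compound levels (final 1 μM down to 0.00015 μM, 0.1% DMSO). CellTiter-Glo luminescence gave viability versus DMSO wells, from which IC50 was fitted.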
(ATP-based viability assays read luminescence as a measure of living cells.)

Assay [3] has as its target T2, human KDR kinase (Homo sapiens, UniProt P35968).
T2 construct: purchased Carna 08-191
Kind of assay: KDR Kinase Assay (LanthaScreen TR-FRET enzymatic assay). Format: biochemical. The conditions noted are these: 1.2 nM KDR, 92 μM ATP. The essentials: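 TR-FRET enzymatic format: after 15-min room-temperature compound pretreatment, 1.2 nM human KDR phosphorylated 3 μM FAM-P22 with 92 μM ATP (HEPES pH 7.5, 28° C., one hour). Reactions were quenched with EDTA buffer. IC50 came from nonlinear sigmoid fits of percent-of-vehicle signal ratios.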
On the technique in general: TR-FRET usually uses a lanthanide donor and a delayed reading to cut background.

Assay [4] deals with T3, human RET kinase (Homo sapiens, UniProt P07949).
T3 construct: purchased Carna 08-159
T3 sequence (P07949 29-1114): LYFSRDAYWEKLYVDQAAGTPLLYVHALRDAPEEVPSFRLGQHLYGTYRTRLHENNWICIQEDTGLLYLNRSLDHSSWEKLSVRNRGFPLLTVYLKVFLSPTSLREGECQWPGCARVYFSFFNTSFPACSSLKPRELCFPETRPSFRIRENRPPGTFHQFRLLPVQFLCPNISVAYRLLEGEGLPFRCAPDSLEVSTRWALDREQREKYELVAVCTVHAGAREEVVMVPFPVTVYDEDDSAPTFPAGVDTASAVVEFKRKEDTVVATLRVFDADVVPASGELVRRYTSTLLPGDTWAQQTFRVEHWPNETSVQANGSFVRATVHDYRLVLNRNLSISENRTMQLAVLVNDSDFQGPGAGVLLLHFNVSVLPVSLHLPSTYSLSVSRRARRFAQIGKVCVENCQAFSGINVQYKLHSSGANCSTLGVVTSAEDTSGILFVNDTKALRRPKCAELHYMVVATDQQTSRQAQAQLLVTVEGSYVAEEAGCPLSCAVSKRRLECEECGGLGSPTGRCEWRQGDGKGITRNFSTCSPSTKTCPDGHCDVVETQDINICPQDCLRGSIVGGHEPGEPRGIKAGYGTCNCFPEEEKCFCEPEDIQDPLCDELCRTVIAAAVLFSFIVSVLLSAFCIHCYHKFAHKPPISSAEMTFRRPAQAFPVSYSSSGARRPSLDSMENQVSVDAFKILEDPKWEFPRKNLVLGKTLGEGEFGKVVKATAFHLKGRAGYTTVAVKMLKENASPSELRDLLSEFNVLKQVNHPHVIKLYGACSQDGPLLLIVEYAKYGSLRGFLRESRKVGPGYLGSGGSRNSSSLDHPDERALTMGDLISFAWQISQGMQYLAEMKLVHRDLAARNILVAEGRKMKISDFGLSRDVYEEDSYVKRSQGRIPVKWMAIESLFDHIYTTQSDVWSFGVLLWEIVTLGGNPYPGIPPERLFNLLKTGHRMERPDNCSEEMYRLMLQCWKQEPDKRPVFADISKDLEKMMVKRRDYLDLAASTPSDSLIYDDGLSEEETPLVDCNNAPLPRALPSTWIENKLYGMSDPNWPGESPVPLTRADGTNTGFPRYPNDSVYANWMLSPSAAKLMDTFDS
Kind of assay: RET Kinase Assay (LanthaScreen TR-FRET enzymatic assay). Format: biochemical. As to conditions: 7 nM RET, 23 μM ATP. The essentials:
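TR-FRET enzymatic read-out using 23 μM ATP, 3 μM FAM-P2 substrate and 7 nM human RET, after 15-min compound pretreatment at room temperature and a 1 h reaction at 28° C in HEPES pH 7.5 buffer. Percent of DMSO control fitted to nonlinear sigmoid curves for IC50.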

T1 sequence (P07949 whole entry, change not shown, the tested form may be a part): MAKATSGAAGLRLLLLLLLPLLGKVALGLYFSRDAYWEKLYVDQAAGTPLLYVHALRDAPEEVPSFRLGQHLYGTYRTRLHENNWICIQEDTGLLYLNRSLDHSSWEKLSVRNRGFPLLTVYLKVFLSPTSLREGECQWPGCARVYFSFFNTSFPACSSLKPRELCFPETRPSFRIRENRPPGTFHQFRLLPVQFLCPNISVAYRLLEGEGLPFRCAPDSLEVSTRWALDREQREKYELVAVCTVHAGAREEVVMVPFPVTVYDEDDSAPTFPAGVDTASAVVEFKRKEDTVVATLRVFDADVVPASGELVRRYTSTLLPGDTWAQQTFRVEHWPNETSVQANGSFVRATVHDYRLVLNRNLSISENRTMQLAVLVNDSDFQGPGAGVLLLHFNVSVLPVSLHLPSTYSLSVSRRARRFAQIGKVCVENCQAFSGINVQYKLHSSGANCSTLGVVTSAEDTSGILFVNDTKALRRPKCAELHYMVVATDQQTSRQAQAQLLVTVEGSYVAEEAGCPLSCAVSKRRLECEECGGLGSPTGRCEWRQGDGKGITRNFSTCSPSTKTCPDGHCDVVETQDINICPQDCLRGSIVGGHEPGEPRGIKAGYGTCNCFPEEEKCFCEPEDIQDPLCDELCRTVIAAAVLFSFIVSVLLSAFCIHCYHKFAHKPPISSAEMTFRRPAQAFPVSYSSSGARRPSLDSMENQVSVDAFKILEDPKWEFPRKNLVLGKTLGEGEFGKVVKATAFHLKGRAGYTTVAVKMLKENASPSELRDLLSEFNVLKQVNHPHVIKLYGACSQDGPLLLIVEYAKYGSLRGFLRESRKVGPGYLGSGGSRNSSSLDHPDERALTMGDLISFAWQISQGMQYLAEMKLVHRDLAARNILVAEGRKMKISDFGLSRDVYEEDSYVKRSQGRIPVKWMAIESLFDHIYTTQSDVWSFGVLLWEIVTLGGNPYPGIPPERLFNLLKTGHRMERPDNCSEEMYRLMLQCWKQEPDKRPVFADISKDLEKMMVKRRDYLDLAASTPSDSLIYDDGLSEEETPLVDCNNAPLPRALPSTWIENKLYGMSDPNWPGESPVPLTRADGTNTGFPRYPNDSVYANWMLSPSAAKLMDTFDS
T2 sequence (P35968 20-1356): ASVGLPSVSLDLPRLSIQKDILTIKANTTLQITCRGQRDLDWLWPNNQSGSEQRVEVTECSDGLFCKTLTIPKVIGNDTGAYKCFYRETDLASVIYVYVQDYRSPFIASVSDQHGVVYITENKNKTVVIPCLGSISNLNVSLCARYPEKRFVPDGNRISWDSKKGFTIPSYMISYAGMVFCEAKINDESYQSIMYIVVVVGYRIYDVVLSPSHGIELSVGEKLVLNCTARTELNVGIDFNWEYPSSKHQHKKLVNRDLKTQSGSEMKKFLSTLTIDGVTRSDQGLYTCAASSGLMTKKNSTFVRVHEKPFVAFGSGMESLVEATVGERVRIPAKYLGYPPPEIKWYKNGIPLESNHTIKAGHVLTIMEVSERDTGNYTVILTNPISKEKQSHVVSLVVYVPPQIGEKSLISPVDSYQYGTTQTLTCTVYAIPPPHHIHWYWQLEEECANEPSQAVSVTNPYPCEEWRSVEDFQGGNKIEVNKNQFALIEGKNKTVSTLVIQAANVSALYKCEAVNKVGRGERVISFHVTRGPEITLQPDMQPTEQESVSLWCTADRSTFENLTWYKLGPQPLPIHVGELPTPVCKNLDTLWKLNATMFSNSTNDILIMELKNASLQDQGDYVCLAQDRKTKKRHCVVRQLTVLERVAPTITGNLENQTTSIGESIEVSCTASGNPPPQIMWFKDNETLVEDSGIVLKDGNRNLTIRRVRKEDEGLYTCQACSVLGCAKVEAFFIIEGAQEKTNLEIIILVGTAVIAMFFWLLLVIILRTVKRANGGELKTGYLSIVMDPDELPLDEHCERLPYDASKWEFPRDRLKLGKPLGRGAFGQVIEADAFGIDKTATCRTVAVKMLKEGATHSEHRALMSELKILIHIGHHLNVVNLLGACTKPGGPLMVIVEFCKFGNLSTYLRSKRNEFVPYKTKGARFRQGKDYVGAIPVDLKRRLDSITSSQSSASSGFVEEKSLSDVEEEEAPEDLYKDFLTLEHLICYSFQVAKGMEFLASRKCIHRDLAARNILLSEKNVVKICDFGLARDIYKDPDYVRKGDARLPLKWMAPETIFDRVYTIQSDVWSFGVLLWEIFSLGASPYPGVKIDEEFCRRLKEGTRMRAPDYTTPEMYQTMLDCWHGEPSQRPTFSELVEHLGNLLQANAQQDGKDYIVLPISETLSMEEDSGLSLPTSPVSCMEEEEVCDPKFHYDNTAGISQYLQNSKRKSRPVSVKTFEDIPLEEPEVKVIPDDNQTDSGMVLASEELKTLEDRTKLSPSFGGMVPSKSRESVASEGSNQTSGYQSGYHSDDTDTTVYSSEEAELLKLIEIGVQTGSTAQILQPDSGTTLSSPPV

Regarding `CC(C)(O)COc1cc(-c2ccc(N3C[C@@H]4C[C@@](C)(NC(=O)c5c(F)cccc5Cl)C[C@@H]4C3)nc2)c2c(C#N)cnn2c1` [Example 96, 2-chloro-N-((3aR,5s,6aS)-2-(5-(3-cyano-6-(2-hydroxy-2-methylpropoxy)pyrazolo[1,5-a]pyridin-4-yl)pyridin-2-yl)-5-methyloctahydrocyclopenta[c]pyrrol-5-yl)-6-fluorobenzamide], the values for the IC50 in assay [1], in assay [3] and in assay [4] were no more than 0.01 µM, 0.01 to 0.05 µM and no more than 0.01 µM, respectively. The GI50 in assay [2] is no more than 0.01 µM.

Turning to `CC(=O)NC12CC3CC(C1)N(c1ccc(-c4cc(-c5cnn(C)c5)cn5ncc(C#N)c45)cn1)C(C3)C2` [Example 97, N-((1R,3S,5s,7s)-2-(5-(3-cyano-6-(1-methyl-1H-pyrazol-4-yl)pyrazolo[1,5-a]pyridin-4-yl)pyridin-2-yl)-2-azaadamantan-5-yl)acetamide], the IC50 in assay [1], in assay [3] and in assay [4] was no more than 0.01 µM throughout. In addition, the GI50 in assay [2] was no more than 0.01 µM.

For `CC(C)(O)COc1cc(-c2ccc(N3C4CC5CC3CC(C(=O)Nc3ncccc3Cl)(C5)C4)nc2)c2c(C#N)cnn2c1` [Example 98, (1R,3 S,5s,7s)-N-(3-chloropyridin-2-yl)-2-(5-(3-cyano-6-(2-hydroxy-2-methylpropoxy)pyrazolo[1,5-a]pyridin-4-yl)pyridin-2-yl)-2-azaadamantane-5-carboxamide], the IC50 is no more than 0.01 µM in assay [1], 0.01 to 0.05 µM in assay [3] and no more than 0.01 µM in assay [4]. The GI50 in assay [2] was no more than 0.01 µM.

Consider `COc1ccc(CN[C@]2(C)C[C@H]3CN(c4cnc(-c5cc(-c6cnn(C)c6)cn6ncc(C#N)c56)cn4)C[C@H]3C2)cn1` [Example 101, 4-(5-((3aR,5s,6aS)-5-(((6-methoxypyridin-3-yl)methyl)amino)-5-methylhexahydrocyclopenta[c]pyrrol-2(1H)-yl)pyrazin-2-yl)-6-(1-methyl-1H-pyrazol-4-yl)pyrazolo[1,5-a]pyridine-3-carbonitrile], for which the IC50 in assay [1] is 0.05 to 0.1 µM; in assay [3], 0.05 to 0.1 µM; in assay [4], no more than 0.01 µM. Besides, the GI50 in assay [2] fell in the range of 0.05 to 0.1 µM.

Take `Cn1cc(-c2cc(-c3ccc(N4C[C@@H]5C[C@@](C)(NC(=O)c6ncccc6C#N)C[C@@H]5C4)nc3)c3c(C#N)cnn3c2)cn1` [Example 121, 3-cyano-N-((3aR,5s,6aS)-2-(5-(3-cyano-6-(1-methyl-1H-pyrazol-4-yl)pyrazolo[1,5-a]pyridin-4-yl)pyridin-2-yl)-5-methyloctahydrocyclopenta[c]pyrrol-5-yl)picolinamide]: the IC50 in assay [1], in assay [3] and in assay [4] was no more than 0.01 µM throughout. In addition, the GI50 in assay [2] is no more than 0.01 µM.

As for `CC(C)C(=O)NC12CC3CC(C1)N(c1ccc(-c4cc(OCC(C)(C)O)cn5ncc(C#N)c45)cn1)C(C3)C2` [Example 132, N-((1R,3S,5s,7s)-2-(5-(3-cyano-6-(2-hydroxy-2-methylpropoxy)pyrazolo[1,5-a]pyridin-4-yl)pyridin-2-yl)-2-azaadamantan-5-yl)isobutyramide], the values for the IC50 in assay [1], in assay [3] and in assay [4] were no more than 0.01 µM, greater than 0.1 µM and no more than 0.01 µM, respectively. In addition, in assay [2], the GI50 lay in the range of 0.01 to 0.05 µM.

As for `CC(C)(O)COc1cc(-c2ccc(N3C4CC5CC3CC(NC(=O)c3ncccc3Cl)(C5)C4)nc2)c2c(C#N)cnn2c1` [Example 135, 3-chloro-N-((1R,3S,5s,7s)-2-(5-(3-cyano-6-(2-hydroxy-2-methylpropoxy)pyrazolo[1,5-a]pyridin-4-yl)pyridin-2-yl)-2-azaadamantan-5-yl)picolinainide], the IC50 in assay [1] was no more than 0.01 µM; in assay [3], 0.01 to 0.05 µM; in assay [4], no more than 0.01 µM. Also, the GI50 in assay [2] is no more than 0.01 µM.

As to `CCOc1cc(-c2ccc(N3C4CC5CC3CC(NC(=O)c3ncccc3Cl)(C5)C4)nc2)c2c(C#N)cnn2c1` [Example 136, 3-chloro-N-((1R,3S,5s,7s)-2-(5-(3-cyano-6-ethoxypyrazolo[1,5-a]pyridin-4-yl)pyridin-2-yl)-2-azaadamantan-5-yl)picolinamide], the IC50 is no more than 0.01 µM in assay [1], 0.01 to 0.05 µM in assay [3] and no more than 0.01 µM in assay [4]. Besides, the GI50 in assay [2] was no more than 0.01 µM.

As for `CC(C)(O)COc1cc(-c2ccc(N3C4CC5CC3CC(NC(=O)c3ncccc3F)(C5)C4)nc2)c2c(C#N)cnn2c1` [Example 137, N-((1R,3S,5s,7s)-2-(5-(3-cyano-6-(2-hydroxy-2-methylpropoxy)pyrazolo[1,5-a]pyridin-4-yl)pyridin-2-yl)-2-azaadamantan-5-yl)-3-fluoropicolinamide], the IC50 in assay [1] was no more than 0.01 µM; in assay [3] it was 0.05 to 0.1 µM; in assay [4], no more than 0.01 µM. For the same compound, the GI50 in assay [2] is no more than 0.01 µM.

For `Cn1cc(-c2cc(-c3ccc(N4C5CC6CC4CC(NC(=O)OC(C)(C)C)(C6)C5)nc3)c3c(C#N)cnn3c2)cn1` [Example 180], the IC50 in assay [1], in assay [3] and in assay [4] was no more than 0.01 µM in each case. Further, the GI50 in assay [2] was no more than 0.01 µM.

As to `Cn1cc(-c2cc(-c3ccc(N4C5CC6CC4CC(N)(C6)C5)nc3)c3c(C#N)cnn3c2)cn1` [Example 181, 4-(6-((1R,3S,5s,7s)-5-amino-2-azaadamantan-2-yl)pyridin-3-yl)-6-(1-methyl-1H-pyrazol-4-yl)pyrazolo[1,5-a]pyridine-3-carbonitrile], the IC50 in assay [1], in assay [3] and in assay [4] was no more than 0.01 µM in each case. Besides, the GI50 in assay [2] lay in the range of 0.01 to 0.05 µM.
